From the supplement of paper PMC10307832

Legend:
Assay in all cases: relative viability (nuclei count vs DMSO), 5 days (fraction); higher = more cells survive
Crenolanib + Foretinib = compound: CC1(COc2ccc3c(c2)ncn3-c2ccc3cccc(N4CCC(N)CC4)c3n2)COC1 [Crenolanib] + COc1cc2c(Oc3ccc(NC(=O)C4(C(=O)Nc5ccc(F)cc5)CC4)cc3F)ccnc2cc1OCCCN1CCOCC1 [Foretinib] (partner 0.25 µM)
Summary of the method: (§1)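 Lung cancer cell lines were seeded in 1536-well plates and dosed by pin tool the next day, with either a single drug or a fixed anchor-drug dose combined with five library-drug doses (not always all listed) spaced in √10 steps. Five days later, one step fixed the cells and stained their nuclei (final 0.05% Triton X-100, 1% formaldehyde, 1 ug/ml Hoechst), and nuclei were counted on 4× images. Relative viability is the nuclei count in treated wells divided by the count in vehicle wells, and each value is the median of duplicate plates.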

Tivantinib + Pictilisib = compound: O=C1NC(=O)[C@@H](c2cn3c4c(cccc24)CCC3)[C@@H]1c1c[nH]c2ccccc12 [Tivantinib] + CS(=O)(=O)N1CCN(Cc2cc3nc(-c4cccc5[nH]ncc45)nc(N4CCOCC4)c3s2)CC1 [Pictilisib] (partner 1 µM)
Summary of the method: as §1

Crenolanib + Crizotinib = compound: CC1(COc2ccc3c(c2)ncn3-c2ccc3cccc(N4CCC(N)CC4)c3n2)COC1 [Crenolanib] + C[C@@H](Oc1cc(-c2cnn(C3CCNCC3)c2)cnc1N)c1c(Cl)ccc(F)c1Cl [Crizotinib] (partner 1 µM)
Summary of the method: as §1

Crenolanib + Linsitinib = compound: CC1(COc2ccc3c(c2)ncn3-c2ccc3cccc(N4CCC(N)CC4)c3n2)COC1 [Crenolanib] + C[C@]1(O)C[C@@H](c2nc(-c3ccc4ccc(-c5ccccc5)nc4c3)c3c(N)nccn32)C1 [Linsitinib] (partner 1 µM)
Summary of the method: as §1

Cell Line	relative viability (Crenolanib + Foretinib; first compound 0.01 µM)	relative viability (Crenolanib + Foretinib; first compound 0.03162 µM)	relative viability (Crenolanib + Foretinib; first compound 0.1 µM)	relative viability (Crenolanib + Foretinib; first compound 0.3162 µM)	relative viability (Crenolanib + Foretinib; first compound 1 µM)	relative viability (Tivantinib + Pictilisib; first compound 0.01 µM)	relative viability (Tivantinib + Pictilisib; first compound 0.03162 µM)	relative viability (Tivantinib + Pictilisib; first compound 0.1 µM)	relative viability (Tivantinib + Pictilisib; first compound 0.3162 µM)	relative viability (Crenolanib + Crizotinib; first compound 0.01 µM)	relative viability (Crenolanib + Crizotinib; first compound 0.03162 µM)	relative viability (Crenolanib + Crizotinib; first compound 0.1 µM)	relative viability (Crenolanib + Crizotinib; first compound 0.3162 µM)	relative viability (Crenolanib + Crizotinib; first compound 1 µM)	relative viability (Crenolanib + Linsitinib; first compound 0.01 µM)	relative viability (Crenolanib + Linsitinib; first compound 0.03162 µM)	relative viability (Crenolanib + Linsitinib; first compound 0.1 µM)	relative viability (Crenolanib + Linsitinib; first compound 0.3162 µM)	relative viability (Crenolanib + Linsitinib; first compound 1 µM)
EKVX	1	0.71	0.802	0.796	0.757	0.449	0.381	0.417	0.163	1.06	0.756	0.899	1.06	1	1.05	1.1	0.954	1.12	1.01
NCI-H358	0.816	0.666	0.634	0.701	0.567	0.406	0.284	0.418	0.294	0.701	0.584	0.592	0.454	0.661	0.819	0.682	0.566	0.727	0.58
H3255	0.935	0.851	0.84	0.877	1.06	0.466	0.494	0.485	–	1.07	0.806	0.889	0.85	0.825	0.923	0.872	0.92	0.938	1.04
NCI-H2228	0.994	0.923	0.693	1.14	1.04	0.405	0.345	0.458	0.413	0.483	0.38	0.407	0.577	0.516	0.762	0.591	0.565	0.691	0.729
NCI-H1299	1.1	1.04	1.06	1.05	1.11	0.9	0.857	0.695	0.807	0.998	0.914	0.924	0.952	0.891	0.995	0.912	0.946	1.01	0.958
NCI-H2023	0.785	1.01	0.942	1.05	1.02	0.246	0.225	0.218	0.202	0.708	0.706	0.639	0.814	0.622	0.669	0.678	0.626	0.801	0.621
NCI-H3122	0.927	0.98	0.985	0.963	1.04	0.585	0.599	0.545	0.441	0.27	0.288	0.298	0.267	0.321	1.03	1	0.994	1.07	1.05
HCC-827	1.08	1.04	1.04	1.1	0.998	1.15	1.01	0.983	0.415	0.938	0.885	0.932	0.964	0.884	0.958	0.94	0.946	0.953	0.872
LU99A	0.747	0.867	0.867	0.879	0.897	0.288	0.308	0.292	0.287	0.565	0.654	0.615	0.558	0.568	0.547	0.559	0.531	0.628	0.603
LC-2-ad	1.1	1.1	0.858	0.971	0.823	0.462	0.354	0.479	0.511	0.439	0.444	0.56	0.44	0.486	0.834	0.887	0.797	0.844	0.873
NCI-H322M	0.951	1.07	0.973	0.96	0.98	0.505	0.481	0.467	0.4	0.96	0.807	1	0.903	1.05	0.944	0.923	0.884	0.935	0.975
HOP-62	1.19	1.23	1.09	1.08	1.15	0.708	–	0.864	0.792	0.87	1.03	0.984	0.821	1.02	0.94	0.764	0.906	1.04	1.01
SW 1573	1.04	0.918	0.943	0.9	0.966	0.491	0.52	0.406	0.472	0.748	0.886	0.795	0.834	0.884	0.873	0.841	0.704	0.96	0.81
NCI-H1993	0.768	0.551	0.719	0.889	0.731	0.817	0.857	0.843	0.902	0.875	0.871	0.875	0.806	0.9	0.771	0.757	0.724	0.649	0.705
NCI-H1734	1.02	0.773	0.859	0.925	0.876	0.479	0.395	0.416	0.469	0.684	0.708	0.657	0.778	0.693	0.925	0.934	0.858	1.02	0.895
NCI-H1666	0.987	0.897	0.886	1.02	0.974	0.552	0.352	0.43	0.401	1.05	0.917	1.01	0.885	1	0.871	0.909	0.765	0.881	0.839
NCI-H460	1.02	1.06	0.938	1	0.99	0.331	0.274	0.335	0.33	0.935	0.924	0.904	1.19	0.831	0.85	0.817	0.745	1.02	0.816
